Measurements reported in ChEMBL document CHEMBL1201861, “Genomics of Drug Sensitity in Cancer screening data, Wellcome Trust Sanger Institute”.

Tests used:
Test in all cases: cells
D-566MG = assay type: functional, cell-based; conditions: Homo sapiens
KNS-62 = assay type: functional, cell-based; conditions: Homo sapiens;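 further: inhibition of cell growth, read out with a cell viability assay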
Description: SANGER: Inhibition of human KNS-62 cell growth in a cell viability assay.

BT-549 = assay type: functional, cell-based; conditions: Homo sapiens
Description: SANGER: Inhibition of human BT-549 cell growth in a cell viability assay.

H9 = assay type: functional, cell-based; conditions: Homo sapiens
Description: SANGER: Inhibition of human H9 cell growth in a cell viability assay.

NCI-H1666 = assay type: functional, cell-based; conditions: Homo sapiens;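 further: growth inhibition of the cell line, read out with a cell viability assay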
Description: SANGER: Inhibition of human NCI-H1666 cell growth in a cell viability assay.

EPLC-272H = assay type: functional, cell-based; conditions: Homo sapiens
Description: SANGER: Inhibition of human EPLC-272H cell growth in a cell viability assay.

LU-135 = assay type: functional, cell-based; conditions: Homo sapiens
Description: SANGER: Inhibition of human LU-135 cell growth in a cell viability assay.

NCI-H522 = assay type: functional, cell-based, Homo sapiens; conditions: Homo sapiens, NCI-H522;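 further: cell viability assay measuring growth inhibition of human NCI-H522 cells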
Description: SANGER: Inhibition of human NCI-H522 cell growth in a cell viability assay.

EW-22 = assay type: functional, cell-based; conditions: Homo sapiens;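 further: growth inhibition of the EW-22 cell line, measured with a cell viability readout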
Description: SANGER: Inhibition of human EW-22 cell growth in a cell viability assay.

NCI-H2009 = assay type: functional, cell-based, Homo sapiens; conditions: Homo sapiens, NCI-H2009;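 further: cell viability assay measuring inhibition of NCI-H2009 cell growth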
Description: SANGER: Inhibition of human NCI-H2009 cell growth in a cell viability assay.

TGBC11TKB = assay type: functional, cell-based; conditions: Homo sapiens;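 further: growth inhibition of human TGBC11TKB cells, measured by a cell viability assay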
Description: SANGER: Inhibition of human TGBC11TKB cell growth in a cell viability assay.

NCI-H1573 = assay type: functional, cell-based; conditions: Homo sapiens;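 further: growth inhibition of NCI-H1573 cells, read out with a cell viability assay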
Description: SANGER: Inhibition of human NCI-H1573 cell growth in a cell viability assay.

NCI-H1048 = assay type: functional, cell-based; conditions: Homo sapiens;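 further: growth inhibition of human NCI-H1048 cells, read out with a cell viability assay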
Description: SANGER: Inhibition of human NCI-H1048 cell growth in a cell viability assay.

ECC10 = assay type: functional, cell-based; conditions: Homo sapiens;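 further: growth inhibition of ECC10 cells, read out by a cell viability assay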
Description: SANGER: Inhibition of human ECC10 cell growth in a cell viability assay.

A549 = assay type: functional, cell-based; conditions: Homo sapiens;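 further: growth inhibition of A549 cells, read out with a cell viability assay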
Description: SANGER: Inhibition of human A549 cell growth in a cell viability assay.

NCI-H2291 = assay type: functional, cell-based; conditions: Homo sapiens
Description: SANGER: Inhibition of human NCI-H2291 cell growth in a cell viability assay.

SNU-423 = assay type: functional, cell-based, Homo sapiens; conditions: Homo sapiens, SNU-423
Description: SANGER: Inhibition of human SNU-423 cell growth in a cell viability assay.

HSC-4 = assay type: functional, cell-based, Homo sapiens; conditions: Homo sapiens, HSC-4;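 further: growth inhibition of human HSC-4 cells, read out with a cell viability assay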
Description: SANGER: Inhibition of human HSC-4 cell growth in a cell viability assay.

SMILES: CC(=O)O[C@@H]1[C@@H](OC(C)=O)[C@@H](O)[C@H](Oc2c(-c3ccc(O)cc3)oc3cc(O)cc(O)c3c2=O)O[C@H]1C
- IC50 (D-566MG): > 10000 nM
- IC50 (KNS-62): > 10000 nM
- IC50 (BT-549): > 10000 nM
- IC50 (H9): > 10000 nM
- IC50 (NCI-H1666): > 10000 nM
- IC50 (EPLC-272H): > 10000 nM
- IC50 (LU-135): > 10000 nM
- IC50 (NCI-H522): > 10000 nM
- IC50 (EW-22): > 10000 nM
- IC50 (NCI-H2009): > 10000 nM
- IC50 (TGBC11TKB): > 10000 nM
- IC50 (NCI-H1573): > 10000 nM
- IC50 (NCI-H1048): > 10000 nM
- IC50 (ECC10): > 10000 nM
- IC50 (A549): > 10000 nM
- IC50 (NCI-H2291): > 10000 nM

SMILES: C=CCNC1=C2C[C@@H](C)C[C@H](OC)[C@H](O)[C@@H](C)/C=C(\C)[C@H](OC(N)=O)[C@@H](OC)/C=C\C=C(/C)C(=O)NC(=CC1=O)C2=O [TANESPIMYCIN]
- IC50 (D-566MG): 3.9 nM
- IC50 (KNS-62): 321 nM
- IC50 (BT-549): 118 nM
- IC50 (H9): 43.7 nM
- IC50 (NCI-H1666): 128 nM
- IC50 (SNU-423): > 1000 nM
- IC50 (EPLC-272H): 62 nM
- IC50 (LU-135): > 1000 nM
- IC50 (NCI-H522): 878 nM
- IC50 (EW-22): > 1000 nM
- IC50 (NCI-H2009): 853 nM
- IC50 (TGBC11TKB): 109 nM
- IC50 (NCI-H1573): 456 nM
- IC50 (NCI-H1048): 290 nM
- IC50 (ECC10): > 1000 nM
- IC50 (A549): < 3.91 nM
- IC50 (NCI-H2291): 479 nM

SMILES: COc1cc(F)c(F)c(Nc2ccc(I)cc2F)c1NS(=O)(=O)C1(CC(O)CO)CC1 (centres undefined)
- IC50 (D-566MG): 4270 nM
- IC50 (KNS-62): 1870 nM
- IC50 (BT-549): > 5000 nM
- IC50 (H9): 20.1 nM
- IC50 (NCI-H1666): 889 nM
- IC50 (SNU-423): 4930 nM
- IC50 (EPLC-272H): 185 nM
- IC50 (LU-135): > 5000 nM
- IC50 (NCI-H522): > 5000 nM
- IC50 (EW-22): > 5000 nM
- IC50 (TGBC11TKB): > 5000 nM
- IC50 (NCI-H1573): > 5000 nM
- IC50 (NCI-H1048): > 5000 nM
- IC50 (ECC10): 1390 nM
- IC50 (A549): 116 nM
- IC50 (NCI-H2291): 397 nM

SMILES: Nc1ccn([C@@H]2O[C@H](CO)[C@@H](O)[C@@H]2O)c(=O)n1 [CYTARABINE]
- IC50 (D-566MG): 269 nM
- IC50 (KNS-62): > 2000 nM
- IC50 (BT-549): 531 nM
- IC50 (H9): 391 nM
- IC50 (NCI-H1666): 1580 nM
- IC50 (SNU-423): 881 nM
- IC50 (HSC-4): 467 nM
- IC50 (EPLC-272H): 1450 nM
- IC50 (LU-135): > 2000 nM
- IC50 (EW-22): 668 nM
- IC50 (NCI-H2009): > 2000 nM
- IC50 (TGBC11TKB): 1730 nM
- IC50 (NCI-H1573): > 2000 nM
- IC50 (NCI-H1048): 389 nM
- IC50 (ECC10): > 2000 nM
- IC50 (A549): 49.7 nM
- IC50 (NCI-H2291): > 2000 nM

SMILES: COc1ccc(-c2ccc3c(N4CCOC[C@@H]4C)nc(N4CCOC[C@@H]4C)nc3n2)cc1CO [AZD-8055]
- IC50 (D-566MG): 1070 nM
- IC50 (KNS-62): 506 nM
- IC50 (BT-549): > 2000 nM
- IC50 (H9): 66.9 nM
- IC50 (NCI-H1666): > 2000 nM
- IC50 (SNU-423): 814 nM
- IC50 (EPLC-272H): 431 nM
- IC50 (LU-135): > 2000 nM
- IC50 (NCI-H522): 630 nM
- IC50 (EW-22): 684 nM
- IC50 (TGBC11TKB): > 2000 nM
- IC50 (NCI-H1573): 902 nM
- IC50 (NCI-H1048): 586 nM
- IC50 (ECC10): 350 nM
- IC50 (A549): 195 nM
- IC50 (NCI-H2291): > 2000 nM

SMILES: O=C1N=C(NCc2cccs2)S/C1=C\c1ccc2ncccc2c1
- IC50 (D-566MG): > 5000 nM
- IC50 (KNS-62): > 5000 nM
- IC50 (BT-549): > 5000 nM
- IC50 (H9): > 5000 nM
- IC50 (NCI-H1666): > 5000 nM
- IC50 (SNU-423): > 5000 nM
- IC50 (EPLC-272H): > 5000 nM
- IC50 (LU-135): > 5000 nM
- IC50 (NCI-H522): > 5000 nM
- IC50 (EW-22): > 5000 nM
- IC50 (TGBC11TKB): > 5000 nM
- IC50 (NCI-H1573): > 5000 nM
- IC50 (NCI-H1048): > 5000 nM
- IC50 (ECC10): > 5000 nM
- IC50 (A549): > 5000 nM
- IC50 (NCI-H2291): > 5000 nM

SMILES: CCOc1nc(NC(=O)Cc2cc(OC)ccc2OC)cc(N)c1C#N
- IC50 (D-566MG): > 10000 nM
- IC50 (KNS-62): > 10000 nM
- IC50 (BT-549): > 10000 nM
- IC50 (H9): > 10000 nM
- IC50 (NCI-H1666): > 10000 nM
- IC50 (SNU-423): > 10000 nM
- IC50 (EPLC-272H): > 10000 nM
- IC50 (LU-135): > 10000 nM
- IC50 (NCI-H522): > 10000 nM
- IC50 (EW-22): > 10000 nM
- IC50 (NCI-H2009): > 10000 nM
- IC50 (TGBC11TKB): > 10000 nM
- IC50 (NCI-H1573): > 10000 nM
- IC50 (NCI-H1048): > 10000 nM
- IC50 (ECC10): > 10000 nM
- IC50 (A549): > 10000 nM
- IC50 (NCI-H2291): > 10000 nM

SMILES: CN(C)C/C=C/C(=O)Nc1cc2c(Nc3ccc(F)c(Cl)c3)ncnc2cc1O[C@H]1CCOC1 [AFATINIB]
- IC50 (D-566MG): > 500 nM
- IC50 (KNS-62): > 500 nM
- IC50 (BT-549): > 500 nM
- IC50 (H9): 71.3 nM
- IC50 (NCI-H1666): > 500 nM
- IC50 (SNU-423): > 500 nM
- IC50 (HSC-4): 17.5 nM
- IC50 (EPLC-272H): > 500 nM
- IC50 (LU-135): > 500 nM
- IC50 (EW-22): > 500 nM
- IC50 (NCI-H2009): > 500 nM
- IC50 (TGBC11TKB): > 500 nM
- IC50 (NCI-H1573): > 500 nM
- IC50 (NCI-H1048): > 500 nM
- IC50 (ECC10): > 500 nM
- IC50 (A549): > 500 nM
- IC50 (NCI-H2291): > 500 nM

SMILES: COc1ccc(C2=N[C@@H](c3ccc(Cl)cc3)[C@@H](c3ccc(Cl)cc3)N2C(=O)N2CCNC(=O)C2)c(OC(C)C)c1 [NUTLIN-3]
- IC50 (D-566MG): > 8000 nM
- IC50 (KNS-62): > 8000 nM
- IC50 (BT-549): > 8000 nM
- IC50 (H9): > 8000 nM
- IC50 (NCI-H1666): > 8000 nM
- IC50 (SNU-423): > 8000 nM
- IC50 (EPLC-272H): > 8000 nM
- IC50 (LU-135): > 8000 nM
- IC50 (NCI-H522): > 8000 nM
- IC50 (EW-22): > 8000 nM
- IC50 (TGBC11TKB): > 8000 nM
- IC50 (NCI-H1573): > 8000 nM
- IC50 (NCI-H1048): > 8000 nM
- IC50 (ECC10): > 8000 nM
- IC50 (A549): 3640 nM
- IC50 (NCI-H2291): > 8000 nM

SMILES: O=C(NOCC1CC1)c1ccc(F)c(F)c1Nc1ccc(I)cc1Cl [CI-1040]
- IC50 (D-566MG): 6540 nM
- IC50 (KNS-62): 2510 nM
- IC50 (BT-549): > 10000 nM
- IC50 (H9): 22.8 nM
- IC50 (NCI-H1666): 6080 nM
- IC50 (HSC-4): 244 nM
- IC50 (EPLC-272H): 5000 nM
- IC50 (LU-135): 7560 nM
- IC50 (EW-22): > 10000 nM
- IC50 (NCI-H2009): > 10000 nM
- IC50 (TGBC11TKB): > 10000 nM
- IC50 (NCI-H1573): > 10000 nM
- IC50 (NCI-H1048): > 10000 nM
- IC50 (ECC10): 8030 nM
- IC50 (A549): 1200 nM
- IC50 (NCI-H2291): 1330 nM
